The test system of this assay is NO release from LPS-stimulated BV2 cells. Put plainly: NO release inhibition in LPS-stimulated BV2 cells (Griess method). The settings on record: compound at 20 μM; for Nitrite (NO release amount): BV2 cells induced by LPS, Griess test; for inhibition at 20 µM: Mus musculus, BV-2, LPS-stimulated BV2 cells, read-out: NO inhibition rate. The assay is classed as cell-based, mouse. As to the method: BV2 cells stimulated by lipopolysaccharide (LPS) lead to an increase in NO release. Therefore, we used the inhibitory ability of the target compounds on NO as a preliminary method to evaluate their anti-neuroinflammatory properties. We evaluated the inhibitory ability of isatin–chalcone hybrid derivatives 4a–t on the release of NO from BV2 cells at 20 μM. The release amount of NO was detected by the Griess method, and the actual release amount of NO was calculated based on the experimental data.
BV2 cells were plated in 96-well microplates at 40,000 cells per well (100 μL/well) and incubated for 24 h. Then, 50 μL of LPS solution with a final concentration of 100 ng/mL and 50 μL of compounds (diluted with medium to a final concentration of 0.31–20 μM) were added, and each concentration had 3 parallel wells. The NO assay kit was used to carry out nitrite assays after 24 h. The 50 μL of culture medium was mixed with the GrisR1 (50 μL) and GrisR2 (50 μL) of the NO assay kit in another new 96-well plate. The absorbance was detected at 540 nm. The percentage of inhibition of NO was obtained from the following formula: [(Rlps − RB − RC)/(Rlps − RB)] × 100, where Rlps is the release amount of only the LPS-treated group, RB is the release amount of the normal control and RC is the release amount of the test compound and LPS-treated group. The IC50 values of test compounds were calculated by linear regression plots.
Background: Nitrite, measured by Griess reagent, commonly stands in for NO production.

Consider 15 molecules from publication PMC11990898, “Novel Isatin–Chalcone Hybrid Molecules: Design, Synthesis and Anti-Neuroinflammatory Activity Evaluation” (Molecules, 2025).

“And” between values parts separate entries of the source, which are not always exact repeats. Identical values can stand only once.

Regarding `CCOC(=O)CN1C(=O)/C(=C/C(=O)c2ccc(OC)cc2)c2ccccc21` [Compound 4h, Ethyl (E)-2-(3-(2-(4-methoxyphenyl)-2-oxoethylidene)-2-oxoindolin-1-yl)acetate], the “Nitrite (NO release amount)” value is 20.6 ± 0.6 µM.

As a reminder, the inhibition is the drop in the measured response relative to a control, in per cent. In the case of `CCOC(=O)CN1C(=O)/C(=C/C(=O)c2cc(OC)c(OC)c(OC)c2)c2cc(I)ccc21` [Compound 9d, Ethyl (E)-2-(5-iodo-2-oxo-3-(2-oxo-2-(3,4,5-trimethoxyphenyl)ethylidene)indolin-1-yl)acetate], the inhibition at 20 µM amounted to 22%.

As to `CCOC(=O)CN1C(=O)/C(=C/C(=O)c2ccc3ccccc3c2)c2ccccc21` [Compound 4p, Ethyl (E)-2-(3-(2-(naphthalen-2-yl)-2-oxoethylidene)-2-oxoindolin-1-yl)acetate], the “Nitrite (NO release amount)” value was determined as 17.0 ± 0.3 µM. Regarding `CCOC(=O)CN1C(=O)/C(=C/C(=O)c2ccc([N+](=O)[O-])cc2)c2ccccc21` [Compound 4n, Ethyl (E)-2-(3-(2-(4-nitrophenyl)-2-oxoethylidene)-2-oxoindolin-1-yl)acetate], the “Nitrite (NO release amount)” value was found to be 16.7 ± 0.3 µM. Still for that read-out and setting: the figure for `CCOC(=O)CN1C(=O)/C(=C/C(=O)c2ccccc2)c2ccccc21` [Compound 4c, Ethyl (E)-2-(2-oxo-3-(2-oxo-2-phenylethylidene)indolin-1-yl)acetate] is 19.3 ± 0.5 µM; for `CCOC(=O)CN1C(=O)/C(=C/C(=O)C2CC2)c2ccccc21` [Compound 4t, Ethyl (E)-2-(3-(2-cyclopropyl-2-oxoethylidene)-2-oxoindolin-1-yl)acetate] it is 16.7 ± 0.2 µM; for `CCOC(=O)CN1C(=O)/C(=C/C(=O)c2ccc(F)cc2)c2ccccc21` [Compound 4k, Ethyl (E)-2-(3-(2-(4-fluorophenyl)-2-oxoethylidene)-2-oxoindolin-1-yl)acetate] it is 15.2 ± 0.2 µM. Still for that read-out and setting: to `O=C1Nc2ccccc2C1=O` [Isatin, 1H-indole-2,3-dione] belongs 20.8 ± 0.9 µM. As for `CCOC(=O)CN1C(=O)/C(=C/C(=O)c2ccc(CC)cc2)c2ccccc21` [Compound 4e, Ethyl (E)-2-(3-(2-(4-ethylphenyl)-2-oxoethylidene)-2-oxoindolin-1-yl)acetate], the “Nitrite (NO release amount)” value was found to be 15.2 ± 0.3 µM. As for `CCOC(=O)CN1C(=O)/C(=C/C(=O)c2ccc(OCC)cc2)c2ccccc21` [Compound 4i, Ethyl (E)-2-(3-(2-(4-ethoxyphenyl)-2-oxoethylidene)-2-oxoindolin-1-yl)acetate], the “Nitrite (NO release amount)” value was found to be 15.3 ± 0.3 µM. Regarding `CCOC(=O)CN1C(=O)/C(=C/C(C)=O)c2ccccc21` [Compound 4a, Ethyl (E)-2-(2-oxo-3-(2-oxopropylidene)indolin-1-yl)acetate], the “Nitrite (NO release amount)” value was 22.9 µM and 22.9 ± 0.5 µM. As to `CCOC(=O)CN1C(=O)/C(=C/C(=O)c2ccc(Br)cc2)c2ccccc21` [Compound 4m, Ethyl (E)-2-(3-(2-(4-bromophenyl)-2-oxoethylidene)-2-oxoindolin-1-yl)acetate], the “Nitrite (NO release amount)” value turned out to be 18.6 ± 0.3 µM. Regarding `CCOC(=O)CN1C(=O)/C(=C/C(=O)c2ccc(Cl)cc2)c2ccccc21` [Compound 4l, Ethyl (E)-2-(3-(2-(4-chlorophenyl)-2-oxoethylidene)-2-oxoindolin-1-yl)acetate], the “Nitrite (NO release amount)” value was determined as 17.5 ± 0.3 µM. On to `CCOC(=O)CN1C(=O)/C(=C/C(=O)c2ccc[nH]2)c2ccccc21` [Compound 4r, Ethyl (E)-2-(2-oxo-3-(2-oxo-2-(1H-pyrrol-2-yl)ethylidene)indolin-1-yl)acetate], for which the “Nitrite (NO release amount)” value is 20.5 ± 0.6 µM and the inhibition at 20 µM was 28%. Take `CCOC(=O)CN1C(=O)/C(=C/C(=O)c2ccc(C)cc2)c2ccccc21` [Compound 4d, Ethyl (E)-2-(2-oxo-3-(2-oxo-2-(p-tolyl)ethylidene)indolin-1-yl)acetate]: the “Nitrite (NO release amount)” value turned out to be 12.5 ± 0.2 µM.
